Assay: storage stability of compound (A) succinate alone or mixed with additive; amount of analogs by HPLC (Experimental Example 1A)
Format: physicochemical
Method: Comparative Examples 1A, 2A and 3A were preserved in a glass bottle with an opened cap at 40° C., 75% RH for 2 weeks, and the amount of analogs due to decomposition of compound (A) was measured, based on which the storage stability was evaluated.
The amounts of the analogs were measured by high performance liquid chromatography (HPLC) under the conditions of Table 11A. As a result, an analogue that specifically increases at relative retention time (RRT) of about 1.65 was observed.

Cn1c(=O)cc(N2CCC[C@@H](N)C2)n(Cc2cc(F)ccc2C#N)c1=O [compound (A), 2-[[6-[(3R)-3-amino-1-piperidinyl]-3,4-dihydro-3-methyl-2,4-dioxo-1(2H)-pyrimidinyl]methyl]-4-fluorobenzonitrile]
total amount of analogs (%) (40° C./75% RH 2 wk (with opened cap), glass bottle): 0.30%
total amount of analogs (%) (initial): 0.30%

— patent US7994183B2, “Solid preparation comprising 2-[[6-[(3R)-3-amino-1-piperidinyl]-3,4-dihydro-3-methyl-2,4-dioxo-1(2H)-pyrimidinyl]methyl]-4-fluorobenzonitrile” (Takeda Pharmaceutical Company Limited, priority 2007, dated 2011)
